Measured values: patent US8124121B2, “Flavors, flavor modifiers, tastants, taste enhancers, umami or sweet tastants, and/or enhancers and use thereof” (Senomyx, Inc., priority 2003, dated 2012)
Values belong to the compound of their own block, whether it stands above or below them.

Molecular target: T1, hT1R1/hT1R3 umami receptor (Homo sapiens, UniProt Q7RTX0+Q7RTX1)
T1 construct: expressed in transfected cells; host or cells: HEK293 derivative stably expressing Gα15, clone I-17, expression induced with mifepristone
T1 sequence (Q7RTX1 21-841): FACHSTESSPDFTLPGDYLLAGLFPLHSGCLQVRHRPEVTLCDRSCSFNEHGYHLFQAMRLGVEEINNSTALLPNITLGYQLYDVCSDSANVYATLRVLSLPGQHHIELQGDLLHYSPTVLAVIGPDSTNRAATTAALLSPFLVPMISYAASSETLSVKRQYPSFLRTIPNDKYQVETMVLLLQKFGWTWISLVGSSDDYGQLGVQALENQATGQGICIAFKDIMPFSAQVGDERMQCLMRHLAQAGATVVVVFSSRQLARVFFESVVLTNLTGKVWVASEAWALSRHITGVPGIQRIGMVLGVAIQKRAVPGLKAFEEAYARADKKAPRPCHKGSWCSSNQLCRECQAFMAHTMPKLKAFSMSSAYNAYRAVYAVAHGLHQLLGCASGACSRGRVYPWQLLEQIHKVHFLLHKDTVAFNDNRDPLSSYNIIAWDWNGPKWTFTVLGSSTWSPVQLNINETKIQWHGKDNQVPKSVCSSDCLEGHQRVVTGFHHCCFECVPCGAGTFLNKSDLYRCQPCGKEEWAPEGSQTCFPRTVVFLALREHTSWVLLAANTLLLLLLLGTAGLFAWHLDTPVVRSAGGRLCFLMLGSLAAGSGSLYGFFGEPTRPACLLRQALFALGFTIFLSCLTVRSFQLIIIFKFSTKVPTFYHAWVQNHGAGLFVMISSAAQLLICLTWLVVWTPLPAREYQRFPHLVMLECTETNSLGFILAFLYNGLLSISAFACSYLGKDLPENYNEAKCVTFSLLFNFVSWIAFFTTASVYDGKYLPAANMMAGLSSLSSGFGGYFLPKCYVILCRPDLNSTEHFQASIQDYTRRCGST
T1 sequence (Q7RTX0 21-852): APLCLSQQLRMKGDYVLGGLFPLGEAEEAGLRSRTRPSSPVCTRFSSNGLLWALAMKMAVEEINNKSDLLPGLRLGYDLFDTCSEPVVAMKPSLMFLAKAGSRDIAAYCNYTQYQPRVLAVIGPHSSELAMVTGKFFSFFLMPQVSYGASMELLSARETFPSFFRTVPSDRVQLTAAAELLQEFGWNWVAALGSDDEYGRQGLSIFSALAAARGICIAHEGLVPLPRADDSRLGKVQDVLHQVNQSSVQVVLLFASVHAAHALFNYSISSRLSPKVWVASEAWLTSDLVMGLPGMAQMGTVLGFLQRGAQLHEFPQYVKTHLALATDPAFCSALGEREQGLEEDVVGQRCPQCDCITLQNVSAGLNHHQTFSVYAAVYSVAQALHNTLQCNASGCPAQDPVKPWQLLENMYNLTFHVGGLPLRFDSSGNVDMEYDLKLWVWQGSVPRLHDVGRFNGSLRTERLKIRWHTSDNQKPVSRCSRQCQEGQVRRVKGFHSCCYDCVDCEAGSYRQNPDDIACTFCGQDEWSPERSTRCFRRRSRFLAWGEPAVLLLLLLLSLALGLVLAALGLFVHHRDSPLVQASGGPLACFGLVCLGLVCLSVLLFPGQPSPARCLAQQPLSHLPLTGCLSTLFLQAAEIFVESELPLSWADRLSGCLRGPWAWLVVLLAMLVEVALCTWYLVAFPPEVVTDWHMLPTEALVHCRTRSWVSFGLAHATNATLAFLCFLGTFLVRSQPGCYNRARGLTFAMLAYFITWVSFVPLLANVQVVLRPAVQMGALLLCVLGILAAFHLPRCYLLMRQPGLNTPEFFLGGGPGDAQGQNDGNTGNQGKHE
Test: Umami taste enhancement activity assay (EC50 ratio vs. MSG)
Format: cell-based
Protocol: A series of measurements of the dose response is run in solutions comprising MSG alone, then a second dose response is run with MSG in combination with predetermined amounts of a candidate compound of Formula (I) at the same time.
Typical compound concentrations tested were 30 μM, 10 μM, 3 μM, 1 μM, 0.3 μM, 0.1 μM and 0.03 μM. The relative efficacy of compounds of Formula (I) at enhancing the receptor was determined by calculating the magnitude of a shift in the EC50 for monosodium glutamate. Enhancement was defined as a ratio (EC50R) corresponding to the EC50 of monosodium glutamate, determined in the absence of the test compound, divided by the EC50 of monosodium glutamate, determined in the presence of the test compound.
Stated alternatively, “EC50 ratio” as compared to MSG is calculated based on the following definitions: EC50 Ratio vs. MSG=EC50 (MSG)/EC50(MSG+[Compound]) • wherein “[compound]” refers to the concentration of the compound of Formula (I) used to elicit (or enhance or potentiate) the MSG dose response.

Compound: CCCC(CCC)NC(=O)c1ccc2c(c1)OC(C(C)C)O2 (stereo not drawn) [Example 21, N-(heptan-4-yl)-2-isopropylbenzo[d][1,3]dioxole-5-carboxamide]
EC50 ratio (enhanced the effectiveness of monosodium glutamate) (compound present at 3 μM): 2.2

Compound: CCCC(CCC)NC(=O)c1ccc(OC)cc1C#N [Example 97, 2-cyano-N-(heptan-4-yl)-4-methoxybenzamide]
EC50 ratio (enhanced the effectiveness of monosodium glutamate) (compound present at 1 μM): 4.52

Compound: COc1ccc(CNC(=O)c2sccc2C)c(OC)c1 [Example 108, 3-Methyl-thiophene-2-carboxylic Acid 2,4-dimethoxy-benzylamide]
EC50 ratio (enhanced the effectiveness of monosodium glutamate) (compound present at 3 μM): 5.8

Compound: O=C(NC1CCCc2ccccc21)c1ccc2c(c1)OCO2 (stereo not drawn) [Example 7, N-(1,2,3,4-tetrahydronaphthalen-1-yl)benzo[d][1,3]dioxole-5-carboxamide]
EC50 ratio (enhanced the effectiveness of monosodium glutamate) (compound present at 0.3 μM): 7.8

Compound: CCCC(CCC)NC(=O)/C=C/c1ccc(OC)c(OC)c1 [Example 87, 3-(3,4-Dimethoxy-phenyl)-N-(1-propyl-butyl)-acrylamide]
EC50 ratio (enhanced the effectiveness of monosodium glutamate) (compound present at 0.3 μM): 2.4

Compound: COC(=O)[C@@H](CC(C)C)NC(=O)c1ccc(OC)c(Cl)c1 [Example 62, (R)-methyl 2-(3-chloro-4-methoxybenzamido)-4-methylpentanoate]
EC50 ratio (enhanced the effectiveness of monosodium glutamate) (compound present at 0.01 μM): 13.18

Compound: CCCC(COC(C)=O)NC(=O)c1ccc2c(c1)OCO2 (stereo not drawn) [Example 14, 2-(benzo[d][1,3]dioxole-6-carboxamido)pentyl Acetate]
EC50 ratio (enhanced the effectiveness of monosodium glutamate) (compound present at 3 μM): 4.1

Compound: CC1CCCC(NC(=O)c2ccc3c(c2)OCO3)C1C (stereo not drawn) [Example 4, N-(2,3-dimethylcyclohexyl)benzo[d][1,3]dioxole-5-carboxamide]
EC50 ratio (enhanced the effectiveness of monosodium glutamate) (compound present at 1 μM): 8.4

Compound: COc1ccc(CNC(=O)c2ccc(-c3ccccn3)s2)c(OC)c1 [Example 109, 5-Pyridin-2-yl-thiophene-2-carboxylic Acid 2,4-dimethoxy-benzylamide]
EC50 ratio (enhanced the effectiveness of monosodium glutamate) (compound present at 3 μM): 8

Compound: O=C(NC1CCc2ccccc21)c1ccc2c(c1)OCO2 (stereo not drawn) [Example 118, Benzo[1,3]dioxole-5-carboxylic Acid indan-1-ylamide]
EC50 ratio (enhanced the effectiveness of monosodium glutamate) (compound present at 0.3 μM): 5.33

Compound: CCOc1ccc(NC(=O)NCCc2ccccn2)cc1 [Example 160, 1-(4-ethoxyphenyl)-3-(2-(pyridine-2-yl)ethyl)urea]
EC50 ratio (enhanced the effectiveness of monosodium glutamate) (compound present at 1 μM): 4.2

Compound: CCCC(CCC)NC(=O)c1ccc2c(c1)OC(C)O2 (stereo not drawn) [Example 18, N-(heptan-4-yl)-2-methylbenzo[d][1,3]dioxole-5-carboxamide]
EC50 ratio (enhanced the effectiveness of monosodium glutamate) (compound present at 0.03 μM): 3.68

Compound: Cc1cc(C(=O)NC(C)CCc2ccccc2)ccc1O (stereo not drawn) [Example 111, 4-Hydroxy-3-methyl-N-(1-methyl-3-phenyl-propyl)-benzamide]
EC50 ratio (enhanced the effectiveness of monosodium glutamate) (compound present at 0.3 μM): 7

Compound: CC(C)C[C@H](CO)NC(=O)c1ccc2c(c1)OCO2 [Example 8, (R)—N-(1-hydroxy-4-methylpentan-2-yl)benzo[d][1,3]dioxole-5-carboxamide]
EC50 ratio (enhanced the effectiveness of monosodium glutamate) (compound present at 3 μM): 2

Compound: COc1ccc(CNC(=O)c2ccccc2-n2cccc2)c(OC)c1 [Example 121, N-(2,4-dimethoxybenzyl)-2-(1H-pyrrol-1-yl)benzamide]
EC50 ratio (enhanced the effectiveness of monosodium glutamate) (compound present at 1 μM): 11

Compound: CCCC(CCC)NC(=O)c1cc2ccccc2o1 [Example 25, Benzofuran-2-carboxylic(1-propylbutyl)amide]
EC50 ratio (enhanced the effectiveness of monosodium glutamate) (compound present at 0.3 μM): 2.6

Compound: O=C(NCc1ccc(OC(F)(F)F)cc1)c1ccsc1 [Example 107, Thiophene-3-carboxylic acid 4-trifluoromethoxy-benzylamide]
EC50 ratio (enhanced the effectiveness of monosodium glutamate) (compound present at 3 μM): 8.5

Compound: CCCC(CCC)NC(=O)Nc1ccc(OC)cc1OC [Example 159, 1-(2,4-dimethoxyphenyl)-3-(heptan-4-yl)urea]
EC50 ratio (enhanced the effectiveness of monosodium glutamate) (compound present at 0.3 μM): 7.61

Compound: CCCC(CCC)NC(=O)Nc1ccccc1Cl [Example 158]
EC50 ratio (enhanced the effectiveness of monosodium glutamate) (compound present at 1 μM): 4.95

Compound: Cc1ccc(CCNC(=O)c2occc2C)cc1 [Example 120, 3-methyl-N-(p-tolylethyl)furan-2-carboxamide]
EC50 ratio (enhanced the effectiveness of monosodium glutamate) (compound present at 1 μM): 3.3

Compound: CCCC(CCC)NC(=O)c1ccc2c(c1)OC(F)(F)O2 [Example 22, 2,2-difluoro-N-(heptan-4-yl)benzo[d][1,3]dioxole-5-carboxamide]
EC50 ratio (enhanced the effectiveness of monosodium glutamate) (compound present at 1 μM): 2.87

Compound: COc1ccc(CNC(=O)c2ccnn2C)c(OC)c1 [Example 110, 2-Methyl-2H-pyrazole-3-carboxylic Acid 2,4-dimethoxy-benzylamide]
EC50 ratio (enhanced the effectiveness of monosodium glutamate) (compound present at 3 μM): 7.9

Compound: CCC(CC)NC(=O)c1ccc(OC)c(Cl)c1 [Example 61, 3-chloro-4-methoxy-N-(pentan-3-yl)benzamide]
EC50 ratio (enhanced the effectiveness of monosodium glutamate) (compound present at 0.3 μM): 6.28

Compound: COc1ccccc1CNC(=O)C(=O)NCCc1ccccn1 [Example 122, N-(2-Methoxy-benzyl)-N′-(2-pyridin-2-yl-ethyl)-oxalamide]
EC50 ratio (enhanced the effectiveness of monosodium glutamate) (compound present at 0.3 μM): 18.85

Other lines, results leading:

Ec50 ratio (vs. MSG) (Table A, compound @ 1 uM): 4.51
Compound: CCCC(CCC)NC(=O)c1cc2cc(OC)ccc2o1 [Example A10, N-(heptan-4-yl)-5-methoxybenzofuran-2-carboxamide]

Ec50 ratio (vs MSG) (Table C, compound Con. 0.3 uM): 2.1
Compound: CCOc1ccc(NC(=O)NC2CCCCC2C)cc1 (stereo not drawn) [Example C10, 1-(4-ethoxyphenyl)-3-(2-methylcyclohexyl)urea]

Ec50 ratio (vs. MSG) (Table A, compound @ 1 uM): 3.8
Compound: COc1cccc(C(=O)NC2CCCc3ccccc32)c1O (stereo not drawn) [Example A87, 2-hydroxy-3-methoxy-N-(1,2,3,4-tetrahydronaphthalen-1-yl)benzamide]

Ec50 ratio (vs. MSG) (Table D, compound @ 0.3 uM): 2.7
Compound: CCOc1ccc(/C=C/C(=O)NC(C)CC)cc1 (stereo not drawn) [Example D13, (E)-N-sec-butyl-3-(4-ethoxyphenyl)acrylamide]

Ec50 ratio (vs. MSG) (Table A, compound @ 0.3 uM): 6.5
Compound: CCC(COC)NC(=O)c1cc2cc(Cl)ccc2o1 (stereo not drawn) [Example A11, 5-chloro-N-(1-methoxybutan-2-yl)benzofuran-2-carboxamide]

Ec50 ratio (vs. MSG) (Table A, compound @ 1 uM): 5.7
Compound: COc1cccc(C(=O)N[C@H]2CCCc3ccccc32)c1O [Example A93, (S)-2-hydroxy-3-methoxy-N-(1,2,3,4-tetrahydronaphthalen-1-yl)benzamide]

Ec50 ratio (vs. MSG) (Table D, compound @ 1 uM): 6.3
Compound: CCCC(CCC)NC(=O)/C=C/c1cccs1 [Example D6, N-(1-Propyl-butyl)-3-thiophen-2-yl-acrylamide]

Umami EC50 ratio (Table E, compound concentration not given): 10.66
Compound: CC1CCCCC1NC(=O)c1ccc(Cl)c(Cl)c1 (stereo not drawn) [Example E54, 3,4-dichloro-N-(2-methylcyclohexyl)benzamide]

Ec50 ratio (vs. MSG) (Table A, compound @ 1 uM): 2.3
Compound: Cc1ccc(C(=O)NC2CCCc3ccccc32)s1 (stereo not drawn) [Example A39, 5-Methyl-thiophene-2-carboxylic acid (1,2,3,4-tetrahydro-naphthalen-1-yl)-amide]
